Test results taken from article PMC8011931, “Identification, Structure–Activity Relationship, and Biological Characterization of 2,3,4,5-Tetrahydro-1H-pyrido[4,3-b]indoles as a Novel Class of CFTR Potentiators” (Journal of Medicinal Chemistry, 2020).

Columns and labels:
Format in all cases: cell-based
F508del-CFTR [1] = target: T1, F508del-CFTR (Homo sapiens, UniProt P13569, DEL508-508); assay: HS-YFP-based assay for CFTR activity on F508del-CFTR FRT cells rescued at 32 °C for 24 h; parameters: expressed in transfected cells; key to Emax: fold increase in F508del-CFTR rescue relative to hit 3 (normalized)
Description: The chemical library was screened in duplicate on a Fischer rat thyroid (FRT) cell line, stably coexpressing F508del-CFTR and the halide-sensitive yellow fluorescent protein, HS-YFP.[23],[34],[35] To overcome the F508del trafficking defect, cells were initially incubated for 24 h at 32 °C and then acutely treated (15–30 min) with a single compound (5 μM) in combination with forskolin (10 μM). After stimulation, the F508del-CFTR activity in the plasma membrane was calculated by measuring the rate of fluorescence quenching arising from iodide influx.[34] This activity was compared to that of wells containing forskolin alone (negative control) or forskolin plus VX-770 (1 μM, as a positive control) (Figure 2A). Analysis of screening performance with the Z′ method gave a score of 0.6, which can be considered optimal for this type of assay. The activity scores for each compound were then plotted as an ordered distribution (Figure 2B). All compounds whose average activity calculated from the two rounds of screening was greater than 185% with respect to the negative control (i.e., forskolin alone) were considered as primary hits.
The primary hits were confirmed by testing them at different concentrations, in order to extrapolate the dose–response relationship. First, we focused on the F508del mutant. The compounds were tested in the low micromolar range, in the presence of forskolin (10 μM), on F508del-CFTR FRT cells following rescue of the trafficking defect by low-temperature incubation, as done for the primary screening. The most interesting hits were subsequently tested for their ability to overcome the more severe gating defect of pure class III mutant using FRT cells stably expressing G551D-CFTR (Figure 3B).
The role of the heteroaryl group (A) acylating the position 2 of the tetrahydro-γ-carboline was initially explored by modifying the substituent on the pyrazolyl residue and replacing the pyrazole with other rings, while keeping the 8-methoxy carboline moiety unmodified. The activity of each compound is described in terms of normalized maximal efficacy (Emax), the maximum fold increase in the rescue of F508del-CFTR activity with respect to hit 3, and potency (EC50), the concentration producing half-maximal efficacy.
FRT cells stably expressing mutant F508del-CFTR or G551D-CFTR and the halide-sensitive yellow fluorescent protein (HS-YFP) YFP-H148Q/I152L and CFBE41o-cells stably expressing F508del-CFTR and HS-YFP were generated as previously described.[21],[57] FRT cells were cultured using the Coon’s modification of Ham’s F12 medium, while CFBE41o-cells were cultured in the modified Eagle’s medium. Media were supplemented with 10% fetal calf serum, 2 mM L-glutamine, 100 U/mL of penicillin, and […] of streptomycin. For functional assays of CFTR activity based on the HS-YFP assays, CFBE41o- or FRT cells were plated (50,000 cells/well) on clear-bottom 96-well black microplates (Corning Life Sciences, Acton, MA). The following day, cells were assayed. In the case of FRT cells expressing F508del-CFTR, plates were kept at 32 °C (or treated with correctors at 37 °C where indicated) for an additional 24 h to rescue the mutant trafficking defect, before assays.
Prior assay, cells were washed with phosphate-buffered saline (PBS) containing (in mM) 137 NaCl, 2.7 KCl, 8.1 Na2HPO4, 1.5 KH2PO4, 1 CaCl2, and 0.5 MgCl2. Cells were then incubated for 25 min with 60 μL of PBS plus forskolin (20 μM) and test compounds (at the desired concentration) to stimulate mutant CFTR. Cells were then transferred to microplate readers (FluoStar Optima; BMG Labtech, Offenburg, Germany) for CFTR activity determination. The plate readers were equipped with high-quality excitation (HQ500/20X: 500 ± 10 nm) and emission (HQ535/30M: 535 ± 15 nm) filters for YFP (Chroma Technology). […]

F508del-CFTR [2] = target: T1, F508del-CFTR; assay: HS-YFP assay on F508del-CFTR CFBE41o- cells, acute stimulation; parameters: expressed in transfected cells; conditions: acute stimulation in the presence of forskolin, Figure 4A
Description: The preliminary activity of these three hits was further evaluated in secondary screening assays. Although featuring the same common scaffold, in order to possibly discriminate the most interesting hit for further structural investigations, the compounds belonging to the family of tetrahydro-γ-carbolines were tested on more relevant cell models. First, the hits were tested on an immortalized bronchial epithelial cell line (CFBE41o-) stably expressing F508del-CFTR and HS-YFP. […]
Prior assay, cells were washed with phosphate-buffered saline (PBS) containing (in mM) 137 NaCl, 2.7 KCl, 8.1 Na2HPO4, 1.5 KH2PO4, 1 CaCl2, and 0.5 MgCl2. […] Cells were then transferred to microplate readers (FluoStar Optima; BMG Labtech, Offenburg, Germany) for CFTR activity determination. The plate readers were equipped with high-quality excitation (HQ500/20X: 500 ± 10 nm) and emission (HQ535/30M: 535 ± 15 nm) filters for YFP (Chroma Technology). The assay consisted of a continuous 14 s fluorescence reading, 2 s before and 12 s after injection of 165 μL of an iodide-containing solution (PBS with Cl^– replaced by I^–; final I^– concentration 100 mM). Data were normalized to the initial background-subtracted fluorescence. […]

CFTR = target: T2, CFTR (Homo sapiens, UniProt P13569); assay: Short-circuit current recordings on primary HBE cells from non-CF individuals
T2 construct: primary human bronchial epithelial (HBE) cells, from non-CF individuals; endogenous in cells; host or cells: primary human bronchial epithelial cells from non-CF individuals
Text: Subsequently, the ability of compounds to elicit CFTR-mediated chloride secretion was verified on primary human bronchial epithelial (HBE) cells, from non-CF individuals, in short-circuit current experiments. In this respect, it should be noticed that potentiators are also able to stimulate wild-type CFTR, provided that a submaximal cAMP-dependent stimulation is applied.[20],[22] Accordingly, cells were stimulated with a submaximal concentration of the cAMP analogue, CPT-cAMP, followed by increasing concentrations of the potentiator hit.[20],[22]
Finally, potentiator 39 and VX-770 were further evaluated in primary HBE cells from non-CF individuals, using short-circuit current measurements, to assess the ability of compounds to maximally activate CFTR function in the presence of a submaximal cAMP stimulation. After the addition of amiloride to inhibit sodium absorption through the ENaC channel, the potentiators were added at the maximal effective concentration (1 μM) after which epithelia were stimulated with a submaximal concentration of CPT-cAMP (5 μM), followed by a maximal concentration of the cAMP analogue (100 μM) (Figure 8). We then measured the extent of CFTR-mediated chloride current elicited by submaximal cAMP stimulation in the presence of a potentiator and compared it to total CFTR-mediated chloride current, determined as the current inhibited by CFTR inhibitor-172. In parallel, other epithelia were stimulated only with the two concentrations of the cAMP analogue, in the absence of a potentiator.
Primary bronchial epithelial cells were cultured as previously described.[58] In brief, epithelial cells were cultured in a serum-free medium (LHC9 mixed with RPMI 1640, 1:1) supplemented with hormones and supplements to support cell number amplification. Then, the cells were seeded at high density on porous membranes (500,000 cells for 1 cm^2 Snapwell inserts, for Ussing chamber studies; 200,000 cells for 0.33 cm^2 Mini-Transwell inserts, for TEER/PD measurements). After 24 h, the serum-free medium was replaced with Dulbecco’s modified Eagle’s medium (DMEM)/Ham’s F12 containing 2% fetal bovine serum (FBS) plus hormones and supplements. Differentiation of cells to form a tight epithelium was monitored by measuring transepithelial electrical resistance and potential difference with an epithelial voltohmmeter (EVOM1, World Precision Instruments). […]
Differentiated bronchial epithelia on Snapwell inserts were mounted in a Ussing chamber with internal fluid circulation. […] The short-circuit current was recorded with a PowerLab 4/25 (ADInstruments) analog-to-digital converter connected to a personal computer.

T1 sequence (P13569 with tags, fused parts or gaps DEL508-508): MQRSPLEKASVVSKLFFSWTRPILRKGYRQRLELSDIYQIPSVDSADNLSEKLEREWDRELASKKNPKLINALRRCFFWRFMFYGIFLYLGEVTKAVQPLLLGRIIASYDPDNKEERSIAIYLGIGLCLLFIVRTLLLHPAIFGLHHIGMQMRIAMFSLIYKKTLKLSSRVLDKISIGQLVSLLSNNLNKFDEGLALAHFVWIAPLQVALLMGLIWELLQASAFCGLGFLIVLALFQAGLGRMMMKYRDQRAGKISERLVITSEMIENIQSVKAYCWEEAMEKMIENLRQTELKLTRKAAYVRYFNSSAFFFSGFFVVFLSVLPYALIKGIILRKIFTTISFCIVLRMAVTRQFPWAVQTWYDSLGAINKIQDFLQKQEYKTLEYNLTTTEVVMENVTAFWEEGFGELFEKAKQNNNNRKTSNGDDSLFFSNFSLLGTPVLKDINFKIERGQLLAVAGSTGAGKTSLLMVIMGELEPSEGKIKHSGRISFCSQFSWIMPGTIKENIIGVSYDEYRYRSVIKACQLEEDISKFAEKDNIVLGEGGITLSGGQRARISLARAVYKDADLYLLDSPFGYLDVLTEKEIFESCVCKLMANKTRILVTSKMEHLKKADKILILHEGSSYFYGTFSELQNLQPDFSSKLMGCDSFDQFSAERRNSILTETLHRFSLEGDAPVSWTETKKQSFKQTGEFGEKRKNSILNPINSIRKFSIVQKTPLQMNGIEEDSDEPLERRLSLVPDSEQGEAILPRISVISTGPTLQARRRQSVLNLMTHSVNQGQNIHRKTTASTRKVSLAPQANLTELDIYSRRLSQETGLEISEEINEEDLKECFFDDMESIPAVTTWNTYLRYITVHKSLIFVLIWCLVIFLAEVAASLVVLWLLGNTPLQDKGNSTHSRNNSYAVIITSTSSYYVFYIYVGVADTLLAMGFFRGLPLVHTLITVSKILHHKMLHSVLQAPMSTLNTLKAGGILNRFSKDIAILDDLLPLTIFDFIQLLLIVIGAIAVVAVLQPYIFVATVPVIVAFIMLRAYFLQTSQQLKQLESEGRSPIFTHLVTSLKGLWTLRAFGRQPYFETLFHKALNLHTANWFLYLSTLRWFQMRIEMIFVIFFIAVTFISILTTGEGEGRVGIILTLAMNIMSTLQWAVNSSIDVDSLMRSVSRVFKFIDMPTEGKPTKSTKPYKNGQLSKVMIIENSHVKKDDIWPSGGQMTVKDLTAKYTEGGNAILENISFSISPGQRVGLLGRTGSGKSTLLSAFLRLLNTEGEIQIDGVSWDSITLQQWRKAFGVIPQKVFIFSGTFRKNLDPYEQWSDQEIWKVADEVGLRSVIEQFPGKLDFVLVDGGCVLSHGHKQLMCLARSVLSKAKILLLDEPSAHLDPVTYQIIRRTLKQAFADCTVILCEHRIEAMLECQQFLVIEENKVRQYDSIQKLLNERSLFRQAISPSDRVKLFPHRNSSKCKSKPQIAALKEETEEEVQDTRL
T2 sequence (P13569 whole entry): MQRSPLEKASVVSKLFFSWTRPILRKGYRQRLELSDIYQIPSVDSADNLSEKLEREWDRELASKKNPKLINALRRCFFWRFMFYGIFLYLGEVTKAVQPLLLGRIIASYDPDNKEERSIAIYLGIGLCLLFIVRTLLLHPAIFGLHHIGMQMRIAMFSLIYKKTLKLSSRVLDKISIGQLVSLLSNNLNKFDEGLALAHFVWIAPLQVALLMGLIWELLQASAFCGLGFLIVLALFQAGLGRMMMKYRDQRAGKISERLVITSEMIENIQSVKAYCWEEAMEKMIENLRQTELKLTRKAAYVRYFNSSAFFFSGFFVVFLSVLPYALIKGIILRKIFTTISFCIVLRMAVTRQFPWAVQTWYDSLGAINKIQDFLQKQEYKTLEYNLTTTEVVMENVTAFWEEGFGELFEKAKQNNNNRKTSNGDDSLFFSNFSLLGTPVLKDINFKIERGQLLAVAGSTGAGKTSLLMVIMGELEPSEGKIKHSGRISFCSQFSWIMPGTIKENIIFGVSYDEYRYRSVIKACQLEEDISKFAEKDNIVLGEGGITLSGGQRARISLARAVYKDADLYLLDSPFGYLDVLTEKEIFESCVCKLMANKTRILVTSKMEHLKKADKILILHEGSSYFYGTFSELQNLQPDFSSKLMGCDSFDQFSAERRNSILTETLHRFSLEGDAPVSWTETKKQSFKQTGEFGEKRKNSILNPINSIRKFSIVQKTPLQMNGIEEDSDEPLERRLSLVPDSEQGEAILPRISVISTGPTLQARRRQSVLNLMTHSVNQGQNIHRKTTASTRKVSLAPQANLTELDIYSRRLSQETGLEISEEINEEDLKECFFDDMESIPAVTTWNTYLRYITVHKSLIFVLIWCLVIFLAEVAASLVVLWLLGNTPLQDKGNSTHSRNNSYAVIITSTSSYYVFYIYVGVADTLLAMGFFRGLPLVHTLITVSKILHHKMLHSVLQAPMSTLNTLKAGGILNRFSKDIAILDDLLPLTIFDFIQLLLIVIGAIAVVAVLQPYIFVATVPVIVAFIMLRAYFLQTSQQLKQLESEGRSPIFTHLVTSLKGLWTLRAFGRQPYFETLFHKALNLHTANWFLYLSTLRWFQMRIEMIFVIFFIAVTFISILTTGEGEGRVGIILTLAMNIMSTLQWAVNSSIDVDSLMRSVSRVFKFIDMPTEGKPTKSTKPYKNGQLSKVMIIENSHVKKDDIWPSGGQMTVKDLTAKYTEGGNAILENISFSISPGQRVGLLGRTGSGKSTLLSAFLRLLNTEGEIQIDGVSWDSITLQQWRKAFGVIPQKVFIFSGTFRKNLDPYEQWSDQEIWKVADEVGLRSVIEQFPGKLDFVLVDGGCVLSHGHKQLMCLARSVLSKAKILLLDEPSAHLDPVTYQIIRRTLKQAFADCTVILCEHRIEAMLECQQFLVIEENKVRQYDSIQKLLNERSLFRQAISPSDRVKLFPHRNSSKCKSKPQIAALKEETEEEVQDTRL

## CN(C)c1ccc2cc(C(=O)N3CCc4[nH]c5ccccc5c4C3)[nH]c2c1 [Compound 1, (6-(Dimethylamino)-1H-indol-2-yl)-(1,3,4,5-tetrahydro-2H-pyrido[4,3-b]indol-2-yl)methanone]
F508del-CFTR [1]; F508del-CFTR FRT cells rescued at 32 °C for 24 h, plus forskolin, mean ± SD (n = 3–6), n.a.: not active (up to 20 μM)
  EC50: 0.12 ± 0.014 µM
F508del-CFTR [1]; supplementary csv, same data as Tables 1–3
  Emax: 1.04 ± 0.07
F508del-CFTR [2]
  dose-dependent activation of mutant CFTR: the most effective

## CC(C)(C)c1cc(C(C)(C)C)c(NC(=O)c2c[nH]c3ccccc3c2=O)cc1O [VX-770, reference compound]
CFTR; 1 μM for both compounds, Figure 8B
  comparison of effectiveness of potentiators: similarly effective
CFTR; potentiator 1 μM, CPT-cAMP 5 μM, versus no potentiator
  increase of the fraction of CFTR-mediated chloride current activated by submaximal cAMP stimulation: more than 2 fold
